Laboratory results taken from patent US5486525A, “Platelet activating factor antagonists: imidazopyridine indoles” (priority 1994, dated 1996).

Biological target: T1, PAF receptor (Oryctolagus cuniculus, UniProt G1TEI7)
T1 construct: platelet membranes were prepared by centrifugation and washing; tissue Pel-Freez (Rogers, AR); host or cells: rabbit blood platelets (membranes prepared from citrated whole rabbit blood)
Experiment: PAF receptor binding assay: inhibition of specific [^3 H]C18 -PAF binding to rabbit platelet membranes
Details: not given

T1 sequence (G1TEI7 1-342): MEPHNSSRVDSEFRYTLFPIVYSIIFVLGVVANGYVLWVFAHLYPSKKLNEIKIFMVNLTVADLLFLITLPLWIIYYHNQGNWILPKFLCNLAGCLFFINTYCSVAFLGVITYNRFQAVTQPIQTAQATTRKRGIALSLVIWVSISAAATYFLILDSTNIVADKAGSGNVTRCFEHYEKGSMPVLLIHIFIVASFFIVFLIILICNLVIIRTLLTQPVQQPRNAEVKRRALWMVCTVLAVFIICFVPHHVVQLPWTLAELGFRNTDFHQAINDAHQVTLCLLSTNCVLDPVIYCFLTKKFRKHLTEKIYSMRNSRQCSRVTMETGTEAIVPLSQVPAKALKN

Compound | Ki [nM] | inhibition at 1 µM [%]
COC(=O)c1cccc2c1c(C(=O)c1ccc(Cn3c(C)nc4cnccc43)c(F)c1)cn2C(=O)N(C)C [Example 96, 1-N,N-Dimethylcarbamoyl-4-methoxycarbonyl-3-{3-fluoro-4-[(1H-2-methylimidazo[4,5-c]pyrid-1-yl)methyl]benzoyl}indole] | 7.7 | –
Cc1nc2cnccc2n1Cc1ccc(C(=O)c2cn(C(=O)N(C)C)c3cc(-c4ccc(F)cc4)ccc23)cc1 [Example 4, 1-N,N-Dimethylcarbamoyl-6-(4-fluorophenyl)-3-{4-[(1H-2-methylimidazo[4.5-c]pyrid-1-yl)methyl]benzoyl}indole] | 2.3 | –
COC(=O)c1cccc2c1c(C(=O)c1ccc(Cn3c(C)nc4cc(Cl)c(Cl)cc43)cc1)cn2C(=O)N(C)C [Example 167, 1-N,N-Dimethylcarbamoyl-4-methoxycarbonyl-3-{4-[(1H-2-methyl-5,6-dichlorobenzimidazolyl)methyl]benzoyl}indole] | 450 | –
Cc1nc2cnccc2n1Cc1cccc(C(=O)c2cn(C(=O)N(C)C)c3ccccc23)c1 [Example 18, 1-N,N-Dimethylcarbamoyl-3-{3-[(1H-2-methylimidazo[4.5-c]pyrid-1-yl)methyl]benzoyl}indole] | 323 | –
Cc1nc2cnccc2n1CC(=O)c1cn(C(=O)N(C)C)c2cc(-c3ccc(F)cc3)ccc12 [Example 24, 1-N,N-Dimethylcarbamoyl-6-(4-fluorophenyl)-3-[(1H-2-methylimidazo[4.5-c]pyrid-1-yl)methylcarbonyl]indole] | – | 6
CN(C)C(=O)n1cc(C(=O)c2ccc(Cn3cnc4cnccc43)cc2)c2ccccc21 [Example 30] | 342 | –

Same assay, conditions: Table 1; rabbit platelet membranes, 0.6 nM [^3 H]C18 -PAF, 60 minutes at room temperature; Ki by Cheng and Prusoff; read-out: Ki

Compound | Ki [nM]
1-N,N-Dimethylcarbamoyl-4-chloro-3-{4-[(1H-2-methyl-5- and 6-chlorobenzimidazoyl)methyl]benzoyl}indole [Example 159] | 9
COC(=O)c1cccc2c1c(C(=O)CCCCCn1c(C)nc3cnccc31)cn2C(=O)N(C)C [Example 126] | 62
Cc1nc2cnccc2n1Cc1ccc(C(=O)c2c[nH]c3cc(-c4ccc(F)cc4)ccc23)cc1 [Example 3, 6-(4-Fluorophenyl)-3-{4-[(1H-2-methylimidazo[4.5-c]pyrid-1-yl)methyl]benzoyl}indole] | 75
